Where two headings read alike, the source gives them in different places.
Target: T1, RiSLM (Rhizophagus irregularis, UniProt U9TZV5)
T1 construct: gene GLOIN_2v1561425; without signal peptide; single LysM domain; expressed in E. coli ORIGAMI from pET-SUMO, SUMO tag removed by ULP-1; c; 7 kDa (faint 14 and 21 kDa bands, possible oligomers); NT.115 RED dye label
Assay: microscale thermophoresis
Assay type: binding
Conditions: dye-labelled protein 20 nM

[1] = 50 mM Tris pH 7.4, 10 mM MgCl2, 150 mM NaCl, 0.05% Tween 20, 22 °C

T1 sequence (U9TZV5 entry or part of it): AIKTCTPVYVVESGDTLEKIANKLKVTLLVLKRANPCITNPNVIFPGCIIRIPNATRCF

| Compound | Kd [1] [µM] | further results |
| --- | --- | --- |
| CC(=O)N[C@H]1[C@H](O[C@H]2[C@H](O)[C@@H](NC(C)=O)[C@H](O[C@H]3[C@H](O)[C@@H](NC(C)=O)[C@H](O[C@H]4[C@H](O)[C@@H](NC(C)=O)C(O)O[C@@H]4CO)O[C@@H]3CO)O[C@@H]2CO)O[C@H](CO)[C@@H](O[C@@H]2O[C@H](CO)[C@@H](O[C@@H]3O[C@H](CO)[C@@H](O[C@@H]4O[C@H](CO)[C@@H](O)[C@H](O)[C@H]4NC(C)=O)[C@H](O)[C@H]3NC(C)=O)[C@H](O)[C@H]2NC(C)=O)[C@@H]1O (some centres unmarked) [CO7, chitoheptaose] | 8.8 ± 1.2 | – |
| LCO-IV(C18:1, S) | – | Kd (25 mM sodium cacodylate pH 6.0, 1 mM MgCl2, 1 mM CaCl2, 250 mM sucrose, 0.175% Fos-choline-10, 0.5% ethanol, 22 °C, first (high-affinity) of two binding events, read-out: K d): ~0.015 µM |
| LCO-IV(C18:1) | – | Kd (25 mM sodium cacodylate pH 6.0, 1 mM MgCl2, 1 mM CaCl2, 250 mM sucrose, 0.175% Fos-choline-10, 0.5% ethanol, 22 °C, single binding event, read-out: K d): ~0.24 µM |
| CC(=O)N[C@H]1[C@H](O[C@H]2[C@H](O)[C@@H](NC(C)=O)[C@H](O[C@H]3[C@H](O)[C@@H](NC(C)=O)C(O)O[C@@H]3CO)O[C@@H]2CO)O[C@H](CO)[C@@H](O[C@@H]2O[C@H](CO)[C@@H](O[C@@H]3O[C@H](CO)[C@@H](O)[C@H](O)[C@H]3NC(C)=O)[C@H](O)[C@H]2NC(C)=O)[C@@H]1O (some centres unmarked) [CO5] | 59.4 ± 2.1 | – |
| CC(=O)N[C@H]1[C@H](O[C@H]2[C@H](O)[C@@H](NC(C)=O)C(O)O[C@@H]2CO)O[C@H](CO)[C@@H](O[C@@H]2O[C@H](CO)[C@@H](O[C@@H]3O[C@H](CO)[C@@H](O)[C@H](O)[C@H]3NC(C)=O)[C@H](O)[C@H]2NC(C)=O)[C@@H]1O (some centres unmarked) [CO4, chitotetraose] | 37.1 ± 1.4 | – |

Source: PMC6916333, “A lysin motif effector subverts chitin‐triggered immunity to facilitate arbuscular mycorrhizal symbiosis” (The New Phytologist, 2019)
